Results from US10053485B2, “Cytotoxic agents that preferentially target leukemia inhibitory factor (LIF) for the treatment of malignancies and as new contraceptive agents” (Evestra, Inc., priority 2015, dated 2018).

Columns and labels:
[1] = test system: HOP-92; experiment: NCI-60 screen, Non-Small Cell Lung Cancer panel; format: cell-based; details: Homo sapiens, HOP-92, 48 h
[2] = test system: SK-MEL-5; experiment: NCI-60 screen, Melanoma panel; format: cell-based; details: Homo sapiens, SK-MEL-5, 48 h
[3] = test system: MCF-7 (ER+ Breast Cancer); experiment: Short term (72 h) cytotoxicity assay; format: cell-based; details: Homo sapiens, MCF7; MCF-7, 72 h cytotoxicity
[4] = test system: PC3 (AR− Prostate Cancer); experiment: Short term (72 h) cytotoxicity assay; format: cell-based; details: Homo sapiens, PC3, 72 h cytotoxicity
[5] = test system: MDA-MB-231 (TNBC) Xenograft; experiment: Tumor xenograft study, MDA-MB-231; format: in vivo, mice
Procedure: Uniform suspensions of human breast cancer MDA-MB-231 and human ovarian cancer IGROV1 cells (2×10^6) in 100 μL (0.02 carboxymethyl cellulose in phosphate buffered saline) were injected subcutaneously into the right and left flanks of 4- to 5-week-old female athymic nude mice (Charles River Laboratories). After 10 days, when the tumor […] reaches 100 mm^3, the mice were randomly allocated to 3 groups of each containing 6 animals. […] All drug was suspended in PBS followed by sonication (15 seconds with an intermittent interval of 5 seconds) for 1 minute. Tumors were allowed to reach palpability before drug intervention. Tumor size was measured every 3 days using digital Vernier Calipers and tumor volume was calculated using the ellipsoid formula [D×(d2)]/2, where D is the large diameter of the tumor and d represents the small diameter. On day 31, the mice were euthanized and tumors were harvested for protein and gene expression studies. […] FIG. 6B depicts a graph of tumor volume vs. time for the administration of EC300 at 2.5 mg/kg twice weekly in the MDA-MB-231 (TNBC) Xenograft. […] FIG. 7 depicts a graph of tumor volume vs. time for the administration of EC300 at 5 mg/kg 5 days per week in the IGROV1 (Ovarian) Xenograft. […] STAT3 phosphorylation is reduced in tumors that underwent treatment compared to control which is an indication of LIF downstream target.

[6] = test system: U251 (Glioma); experiment: Short term (72 h) cytotoxicity assay; format: cell-based, human; details: Homo sapiens, U-251; U251, 72 h cytotoxicity
[7] = test system: NCI-H226; experiment: NCI-60 screen, Non-Small Cell Lung Cancer panel; format: cell-based; details: Homo sapiens, NCI-H226, 48 h, read-out: GI50 (log10GI50) (converted)
[8] = test system: OVCAR-8; experiment: NCI-60 screen, Ovarian Cancer panel; format: cell-based; details: Homo sapiens, OVCAR-8, 48 h
[9] = test system: human endometrial stromal cells (HESC); experiment: Decidualization assay, actin cytoskeleton by phalloidin staining; format: cell-based; details: FIG. 3
Procedure: Decidualization studies: The above compounds were investigated originally for the treatment of endometriosis. The compounds were tested in a decidualization assay using human endometrial stromal fibroblast (HESC) cells. In preparation for the possibility of embryonic attachment, the stromal cells in the endometrium undergo extensive waves of proliferation, remodeling, and terminal differentiation that transforms the endometrium into an endocrine gland, called decidua. This transformation is called decidualization and it is under the control by ovarian hormones.
The level of apoptosis increases from the proliferative phase through menstrual cycle and peaks at menses. […] However if the cells are subjected to conditions that induce decidualization, stromal cells will begin to differentiate instead of undergoing apoptosis.
Briefly, human stromal endometrial cells were plated in the presence and absence of progesterone and allow undergoing decidualization. The cells treated with test compounds of different concentrations and stained for actin cytocketal morphology using phalloidin staining and monitored under fluorescent microscope.

[10] = test system: U251; experiment: NCI-60 screen, CNS Cancer panel; format: cell-based; details: Homo sapiens, U-251, 48 h
[11] = test system: A549 (Lung cancer); experiment: Short term (72 h) cytotoxicity assay; format: cell-based, human; details: Homo sapiens; A549, 72 h cytotoxicity
[12] = test system: RXF 393; experiment: NCI-60 screen, Renal Cancer panel; format: cell-based; details: Homo sapiens, RXF 393, 48 h
[13] = test system: IGROV-1 (Ovarian cancer cells); experiment: Short term (72 h) cytotoxicity assay; format: cell-based; details: Homo sapiens; IGROV-1, 72 h cytotoxicity
[14] = test system: KM12; experiment: NCI-60 screen, Colon Cancer panel; format: cell-based; details: Homo sapiens, KM12, 48 h
[15] = test system: RPMI-8226; experiment: NCI-60 screen, Leukemia panel; format: cell-based; details: Homo sapiens, RPMI-8226, 48 h
[16] = test system: human umbilical vein endothelial cells (HUVEC); experiment: Matrigel in vitro HUVECs tube formation assay (angiogenesis); format: cell-based
Procedure: Matrigel in vitro HUVECs tube formation assay: The tube formation assay was performed using 12-well plate coated with 100 μL Matrigel basement membrane matrix (BD Bioscience) per well and polymerized at 37° C. for 30 min. Human umbilical vascular endothelial cells (HUVECs) suspended in M199 medium containing 2% FBS were plated on the Matrigel at a density of 2×10^5 cells/well. […] After 8 h, the Matrigel-induced morphological changes were photographed and the extent of capillary tube formation was evaluated by measuring the total tube length per field.

[17] = test system: MDA-MB-231 (TNBC cells); experiment: Short term (72 h) cytotoxicity assay; format: cell-based; details: Homo sapiens; MDA-MB-231, 72 h cytotoxicity
[18] = test system: NCI-H23; experiment: NCI-60 screen, Non-Small Cell Lung Cancer panel; format: cell-based; details: Homo sapiens, NCI-H23, 48 h
[19] = test system: TK-10; experiment: NCI-60 screen, Renal Cancer panel; format: cell-based; details: Homo sapiens, TK-10, 48 h
[20] = test system: SF-539; experiment: NCI-60 screen, CNS Cancer panel; format: cell-based; details: Homo sapiens, SF-539, 48 h
[21] = read-out: GI50 (log10GI50) (converted)
[22] = read-out: LC50 (log10LC50) (converted)

For `C#CC(F)(F)[C@]1(O)CCC2C3CCC4=CC(=O)CCC4=C3C(c3ccc(C4CC4)cc3)C[C@@]21C` (stereo partly drawn) [EC330, 17α-(1,1-difluoro-2-propyn-1-yl)-17β-hydroxy-11β-[4-p-(cyclopropyl)phenyl]estra-4,9-dien-3-one], which GI50 [1, 21] is on record?
Its GI50 is < 10 nM.

And the CC50 [1, 22]?
Its CC50 is 19.1 nM.

And the GI50 [2, 21]?
The GI50 was 4.68 µM.

And the CC50 [2, 22]?
The CC50 was 43.7 µM.

And the IC50 [3]?
The IC50 was 100 nM.

What about the IC50 [4] of the same compound?
Its IC50 is 30 nM.

What about the “apoptosis in xenograft tumors” value ([5]; MDA-MB-231 xenograft tumors, FIG. 9) of the same compound?
Its value is “induced apoptosis dose dependently”.

And the tumor growth ([5]; human triple negative breast cancer (TNBC) model)?
Its tumor growth is “significantly reduced”.

What about the “STAT3 phosphorylation in tumors” value ([5]; treated vs. control, 'It is believed') of the same compound?
Its value is “reduced”.

And the IC50 [6]?
Its IC50 is 20 nM.

And the GI50 [7]?
Its GI50 is 2630 nM.

What about the GI50 [8, 21] of the same compound?
The GI50 was 1550 nM.

What about the CC50 [8, 22] of the same compound?
Its CC50 is > 100 µM.

What about the “actin / alpha-smooth muscle mediated cytoskeletal disruption of fibroblast” value [9] of the same compound?
Its value is “cytoskeletal disruption”.

What about the GI50 [10, 21] of the same compound?
Its GI50 is 151 nM.

What about the CC50 [10, 22] of the same compound?
The CC50 was 5.37 µM.

What about the IC50 [11] of the same compound?
Its IC50 is 25 nM.

What about the GI50 [12, 21] of the same compound?
The GI50 was 1070 nM.

What about the CC50 [12, 22] of the same compound?
Its CC50 is > 100 µM.

What about the IC50 [13] of the same compound?
The IC50 was 35 nM.

And the GI50 [14, 21]?
The GI50 was < 10 nM.

And the CC50 [14, 22]?
Its CC50 is 44.7 µM.

What about the GI50 [15, 21] of the same compound?
The GI50 was 112 nM.

And the CC50 [15, 22]?
The CC50 was > 100 µM.

And the tube formation ([16]; 1 μM concentration, all measured time points)?
The tube formation was “complete abrogation”.

And the “angiogenesis in vitro (tube formation assay)” value ([16]; FIG. 2)?
The value was “inhibited”.

And the IC50 [17]?
Its IC50 is 34 nM.

What about the GI50 [18, 21] of the same compound?
The GI50 was < 10 nM.

What about the CC50 [18, 22] of the same compound?
The CC50 was > 100 µM.

And the GI50 [19, 21]?
The GI50 was 2630 nM.

What about the CC50 [19, 22] of the same compound?
Its CC50 is > 100 µM.

What about the GI50 [20, 21] of the same compound?
The GI50 was < 10 nM.

And the CC50 [20, 22]?
The CC50 was 52.5 nM.
